Results on 1 compound are retold here after patent publication US20040204474A1, “Carvedilol-lipophilic solutions” (priority 2000, published 2004).

Where two headings read alike, the source gives them in different places. A value given as a limit tells only on which side of the number the result lay.

The nature of series [1]: gastrointestinal resorption after peroral administration. The class given is in vivo. The note with it: rapid release formulations, e.g. the commercial formulation.
Series [2] in a line: solubility of carvedilol in adjuvants and solvents with lipophilic character. The following applies: for solubility: oil or lipid. The class given is physicochemical.
The nature of series [3]: solubility of carvedilol in aqueous media. The class given is physicochemical. The following applies: about pH 1-2.

For orientation: solubility means the dissolved amount per volume that the medium holds. For the compound `COc1ccccc1OCCNCC(O)COc1cccc2[nH]c3ccccc3c12` (centres unmarked) [carvedilol, 1-(4-carbazolyloxy)-3-[2-(2-methoxyphenoxy)ethyl-amino]-2-propanol], the resorption quota entry in series [1] is “up to 80%”. For the same compound, the “solubility in pronounced lipophilic solvents (paraffin, petroleum ether)” value in series [2] was “very low”. Further, the “solubility in benzyl alcohol” value in series [2] (at 37° C.) is listed as > 100 mg of carvedilol per ml. The solubility is > 100 mg/mL in series [2] (capric acid, 37 °C, at 37° C., read-out: solubility in capric acid); < 10 mg/mL in series [2] (in many cases, read-out: solubility in glycerol oleyloleate, medium chain triglycerides and natural oils); < 50 mg/mL in series [2] (all named solvents, read-out: solubility in glycerol oleyloleate, medium chain triglycerides and natural oils (cod liver, soya bean, sesame, peanut, olive, cottonseed oil)); > 100 mg/mL in series [2] (oleic acid, 37 °C, at 37° C., read-out: solubility in oleic acid). Also, the “solubility in aqueous media, strongly acidic region” value in series [3] was “very low solubility”.
